Data: ChEMBL document CHEMBL1201862, “PubChem BioAssay data set” (2004)
Activity calls are given as the source filed them.

Assays:
[1] = biological target: Protein-tyrosine kinase 2-beta (Homo sapiens, UniProt Q14289);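 also: potency of inhibitors of PYK2 kinase phosphorylation of poly-GT substrate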
[2] = Luminescence Cell-Based Dose Response to Identify Activators of Luciferase Translation or Activity in H4-C Neuroglioblastoma Cells. [Related pubchem assays: 1829 (Project Summary), 1814 (Primary HTS)]; assay type: functional
[3] = Luminescence Cell-Based Dose Response HTS to Identify Activators of Luciferase Translation or Activity in H4 […] Cells. [Related pubchem assays: 1829 (Project Summary), 1814 (Primary HTS)]; assay type: functional
[4] = Luminescence Cell-Based Dose Response to Identify Activators of 5'UTR Stem-Loop Driven Prion Protein mRNA Translation in H4-C Neuroglioblastoma Cells. [Related pubchem assays: 1829 (Project Summary), 1814 (Primary HTS)]; assay type: functional
H4 = assay: Luminescence Cell-Based Dose Response HTS to Identify Activators of 5'UTR Stem-Loop Driven Prion Protein mRNA Translation in H4 Neuroglioblastoma Cells. [Related pubchem assays: 1829 (Project Summary), 1814 (Primary HTS)]; assay type: functional; conditions: Homo sapiens
[5] = Luminescence Cell-Based Dose Confirmation HTS to Identify Activators of 5'UTR Stem-Loop Driven Alpha-Synuclein mRNA Translation in H4 Neuroglioblastoma Cells. [Related pubchem assays: 1829 (Project Summary), 1814 (Primary HTS)]; assay type: functional
[6] = Luminescence Cell-Based Dose Confirmation to Identify Activators of 5'UTR Stem-Loop Driven Alpha-Synuclein mRNA Translation in H4 Neuroglioblastoma Cells. [Related pubchem assays: 1829 (Project Summary), 1814 (Primary HTS)]; assay type: functional
[7] = biological target: T1, Histone-lysine N-methyltransferase NSD2 (Homo sapiens, UniProt O96028); assay type: biochemical
T1 sequence (O96028 whole entry): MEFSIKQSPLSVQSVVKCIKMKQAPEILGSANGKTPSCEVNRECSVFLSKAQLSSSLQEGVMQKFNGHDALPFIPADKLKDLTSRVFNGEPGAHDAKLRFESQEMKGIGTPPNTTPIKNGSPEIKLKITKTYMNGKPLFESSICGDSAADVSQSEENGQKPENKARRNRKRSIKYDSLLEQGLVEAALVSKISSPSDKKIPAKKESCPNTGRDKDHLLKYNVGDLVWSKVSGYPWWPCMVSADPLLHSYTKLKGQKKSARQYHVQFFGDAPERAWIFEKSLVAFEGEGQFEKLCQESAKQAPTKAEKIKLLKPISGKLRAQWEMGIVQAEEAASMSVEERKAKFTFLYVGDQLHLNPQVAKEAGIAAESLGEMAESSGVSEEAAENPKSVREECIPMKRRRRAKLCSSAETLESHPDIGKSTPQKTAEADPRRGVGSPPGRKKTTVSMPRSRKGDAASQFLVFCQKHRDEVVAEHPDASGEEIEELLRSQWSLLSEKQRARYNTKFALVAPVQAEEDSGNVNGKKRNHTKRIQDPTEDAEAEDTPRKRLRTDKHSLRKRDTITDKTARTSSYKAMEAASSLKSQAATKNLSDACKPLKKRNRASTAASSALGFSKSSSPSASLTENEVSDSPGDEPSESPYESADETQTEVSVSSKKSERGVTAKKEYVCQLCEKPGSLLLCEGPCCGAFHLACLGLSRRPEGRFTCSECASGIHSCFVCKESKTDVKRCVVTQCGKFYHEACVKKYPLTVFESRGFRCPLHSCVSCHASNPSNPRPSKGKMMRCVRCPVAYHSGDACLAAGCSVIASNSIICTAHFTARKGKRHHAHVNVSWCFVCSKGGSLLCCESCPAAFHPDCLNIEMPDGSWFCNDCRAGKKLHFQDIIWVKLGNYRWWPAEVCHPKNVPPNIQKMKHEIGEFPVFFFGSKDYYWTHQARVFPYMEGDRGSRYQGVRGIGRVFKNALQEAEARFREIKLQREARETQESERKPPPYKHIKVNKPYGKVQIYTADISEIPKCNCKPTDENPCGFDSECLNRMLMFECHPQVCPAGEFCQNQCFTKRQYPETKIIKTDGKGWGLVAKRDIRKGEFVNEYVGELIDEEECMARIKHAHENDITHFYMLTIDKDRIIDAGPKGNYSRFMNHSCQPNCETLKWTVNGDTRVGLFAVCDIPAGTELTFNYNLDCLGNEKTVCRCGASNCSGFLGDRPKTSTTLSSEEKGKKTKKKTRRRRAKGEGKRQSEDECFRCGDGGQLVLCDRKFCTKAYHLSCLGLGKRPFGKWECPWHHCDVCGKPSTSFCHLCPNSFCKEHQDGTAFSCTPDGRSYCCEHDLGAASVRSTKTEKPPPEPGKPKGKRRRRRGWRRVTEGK

[8] = biological target: T2, Zinc finger protein mex-5 (Caenorhabditis elegans, UniProt Q9XUB2); assay: MEX-5/TCR-2 RNA interaction inhibitors, dose response, biochemical, C. elegans, fluorescence polarization (AID 1960)
T2 sequence (Q9XUB2 whole entry): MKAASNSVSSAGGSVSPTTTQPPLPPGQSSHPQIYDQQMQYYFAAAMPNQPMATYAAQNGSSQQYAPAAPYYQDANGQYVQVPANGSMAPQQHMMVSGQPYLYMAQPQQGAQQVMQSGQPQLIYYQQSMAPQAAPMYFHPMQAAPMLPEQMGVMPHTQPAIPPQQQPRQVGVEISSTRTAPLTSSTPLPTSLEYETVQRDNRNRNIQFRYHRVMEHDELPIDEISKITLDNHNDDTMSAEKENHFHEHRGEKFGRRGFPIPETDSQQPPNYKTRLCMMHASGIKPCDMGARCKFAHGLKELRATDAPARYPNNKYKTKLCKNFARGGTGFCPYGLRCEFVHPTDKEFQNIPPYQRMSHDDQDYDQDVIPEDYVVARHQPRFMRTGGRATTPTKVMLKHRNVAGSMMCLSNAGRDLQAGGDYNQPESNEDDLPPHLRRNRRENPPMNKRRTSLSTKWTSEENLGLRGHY

[9] = biological target: T3, RNA-binding protein pos-1 (Caenorhabditis elegans, UniProt G5EF15); assay: inhibitors of POS-1/mex-3 RNA binding, dose response, biochemical, fluorescence polarization (AID 1964);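 also: purified POS-1 fused to maltose binding protein made in E. coli; potency of compounds blocking POS-1 binding to fluorescent RNA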
T3 sequence (G5EF15 whole entry): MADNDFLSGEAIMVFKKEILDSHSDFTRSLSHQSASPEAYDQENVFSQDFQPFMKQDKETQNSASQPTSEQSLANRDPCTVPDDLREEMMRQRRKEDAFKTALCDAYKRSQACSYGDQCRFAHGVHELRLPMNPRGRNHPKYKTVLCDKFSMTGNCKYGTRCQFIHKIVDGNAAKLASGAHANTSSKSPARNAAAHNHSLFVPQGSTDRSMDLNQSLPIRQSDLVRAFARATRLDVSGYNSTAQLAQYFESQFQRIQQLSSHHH

Kallikrein-7 = Kallikrein-7 (Homo sapiens, UniProt P49862); assay: Fluorescence Intensity-based biochemical primary high throughput dose response assay to identify activators of kallikrein-7 (K7) zymogen.
[10] = inhibitors of Vif binding to APOBEC3G peptide, primary screen, biochemical, TR-FRET, GST-Vif 1-94, biotin-A3G peptide, dose response retest (AID 1117319); assay type: functional;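 also: TR-FRET signal of purified GST-Vif binding a biotinylated A3G peptide; inhibitors lower the FRET signal by blocking Vif and A3G binding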
[11] = THP-1 cell cytotoxicity, dose response, cytotoxicity control for Vif-APOBEC3G degradation inhibitor project, THP-1 cells (AID 1117359); assay type: functional; conditions: Human immunodeficiency virus 1, THP-1
Vero = Vero cell cytotoxicity, cytotoxicity control for flavivirus capping enzyme inhibitors (AID 588742); assay type: functional; conditions: Chlorocebus sabaeus
Cytochrome P450 3A4 = Cytochrome P450 3A4 (Homo sapiens, UniProt P08684); conditions: Potency;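 also: confirmatory qHTS run detecting inhibitors and substrates of CYP3A4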
[12] = LGR2 antagonists, dose response, cell-based, HEK293, CRE-luciferase reporter, cherry pick, set 2 (AID 743343); assay type: functional;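 also: transfected cells were stimulated with diluted bursicon conditioned medium after compound addition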
[13] = MC4R antagonists, dose response, counter-screen for LGR2 antagonist project, cell-based, plate reader, cherry pick (AID 743444); assay type: functional;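 also: transfected HEK 293 cells stimulated with alpha-MSH peptide; potency of inhibitors of the alpha-MSH evoked signal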
[14] = A549 cell cytotoxicity, dose response, cytotoxicity control, plate reader, cherry-pick, antagonist series (AID 743412); assay type: functional, cell-based
HEK293 = assay: HEK293T cell cytotoxicity, dose response, cytotoxicity control, ATP luminescence, cherry-pick samples (AID 687005); assay type: functional, cell-based; conditions: Homo sapiens;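 also: cells exposed to compound for 48 hours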
[15] = HEK293 Cytotoxicity Assay Measured in Cell-Based System Using Plate Reader - 7071-01_Inhibitor_Dose_CherryPick_Activity_Set2.; assay type: functional
[16] = cytotoxicity in OVCAR8 ovarian cancer cells, dose response, PAX8 project, cell-based, plate reader, dry powder samples (AID 743197); assay type: functional; conditions: OVCAR-8
Paired box protein Pax-8 = Paired box protein Pax-8 (Homo sapiens, UniProt Q06710); assay: inhibitors of PAX8-driven TPO luciferase reporter, dose response, RMG-I cells, cherry-pick (AID 687027); assay type: functional, cell-based;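 also: luciferase reporter driven by Pax8 target thyroperoxidase promoter measured by SteadyGlo luminescence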
[17] = NIH:OVCAR-3 ovarian cancer cell cytotoxicity, dose response, PAX8 inhibitor project, plate reader, dry powder samples (AID 743044); assay type: functional, cell-based
[18] = inhibitors of HIV Env-driven cell fusion, dose response, cherry-pick (AID 652057); assay type: functional, cell-based
[19] = inhibitors of clade B AD8 Env fusion, dose response, cell-based, cherry-pick (AID 652062); assay type: functional;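 also: luciferase signal from cell-cell fusion driven by HIV-1 clade B AD8 Env; potency is for inhibitors of fusion seen as a drop in luminescence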
Cytochrome P450 2D6 = Cytochrome P450 2D6 (Homo sapiens, UniProt P10635);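 also: CYP2D6 member of a cytochrome P450 panel assay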
[20] = biological target: Disintegrin and metalloproteinase domain-containing protein 17 (Homo sapiens, UniProt P78536); assay: ADAM17 protease inhibitors, dose response, counter-screen for ADAM10 exosite inhibitor project, biochemical, quenched FRET substrate (AID 743253)
Cytochrome P450 2C9 = Cytochrome P450 2C9 (Homo sapiens, UniProt P11712)
Chain of Cytochrome P450 2C9 (P11712 whole entry): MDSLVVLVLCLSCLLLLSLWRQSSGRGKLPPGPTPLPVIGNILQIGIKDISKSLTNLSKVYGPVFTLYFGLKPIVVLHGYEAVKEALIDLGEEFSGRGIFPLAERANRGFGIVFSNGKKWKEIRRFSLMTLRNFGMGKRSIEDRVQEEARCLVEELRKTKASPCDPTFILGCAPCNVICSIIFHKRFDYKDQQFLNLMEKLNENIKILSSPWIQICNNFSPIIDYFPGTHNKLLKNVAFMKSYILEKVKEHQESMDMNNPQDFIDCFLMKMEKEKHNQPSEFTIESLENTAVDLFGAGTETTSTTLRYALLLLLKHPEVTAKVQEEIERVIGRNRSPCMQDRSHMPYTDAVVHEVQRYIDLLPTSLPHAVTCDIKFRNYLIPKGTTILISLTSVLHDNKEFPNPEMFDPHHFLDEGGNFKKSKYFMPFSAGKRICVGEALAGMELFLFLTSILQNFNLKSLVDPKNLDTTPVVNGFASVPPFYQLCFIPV

Chain of Kallikrein-7 (P49862 whole entry): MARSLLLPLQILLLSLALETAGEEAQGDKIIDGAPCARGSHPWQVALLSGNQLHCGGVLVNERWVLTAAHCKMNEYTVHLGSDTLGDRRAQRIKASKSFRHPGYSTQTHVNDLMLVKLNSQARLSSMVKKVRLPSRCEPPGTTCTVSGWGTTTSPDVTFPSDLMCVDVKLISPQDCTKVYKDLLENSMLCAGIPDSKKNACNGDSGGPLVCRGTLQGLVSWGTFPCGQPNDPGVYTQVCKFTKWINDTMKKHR
Chain of Cytochrome P450 3A4 (P08684 whole entry): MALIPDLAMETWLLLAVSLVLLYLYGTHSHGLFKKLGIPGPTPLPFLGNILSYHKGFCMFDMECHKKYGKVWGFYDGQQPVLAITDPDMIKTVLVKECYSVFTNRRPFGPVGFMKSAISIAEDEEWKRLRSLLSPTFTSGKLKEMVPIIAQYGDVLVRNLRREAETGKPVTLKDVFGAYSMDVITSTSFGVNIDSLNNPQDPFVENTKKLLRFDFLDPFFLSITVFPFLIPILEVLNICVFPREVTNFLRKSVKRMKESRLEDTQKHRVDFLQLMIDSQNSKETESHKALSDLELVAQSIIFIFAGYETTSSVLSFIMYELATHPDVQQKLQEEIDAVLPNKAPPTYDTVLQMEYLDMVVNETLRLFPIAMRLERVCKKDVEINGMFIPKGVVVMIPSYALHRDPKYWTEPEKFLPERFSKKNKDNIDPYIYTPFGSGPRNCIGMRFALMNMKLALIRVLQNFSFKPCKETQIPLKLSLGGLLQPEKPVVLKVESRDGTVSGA
Chain of Protein-tyrosine kinase 2-beta (Q14289 whole entry): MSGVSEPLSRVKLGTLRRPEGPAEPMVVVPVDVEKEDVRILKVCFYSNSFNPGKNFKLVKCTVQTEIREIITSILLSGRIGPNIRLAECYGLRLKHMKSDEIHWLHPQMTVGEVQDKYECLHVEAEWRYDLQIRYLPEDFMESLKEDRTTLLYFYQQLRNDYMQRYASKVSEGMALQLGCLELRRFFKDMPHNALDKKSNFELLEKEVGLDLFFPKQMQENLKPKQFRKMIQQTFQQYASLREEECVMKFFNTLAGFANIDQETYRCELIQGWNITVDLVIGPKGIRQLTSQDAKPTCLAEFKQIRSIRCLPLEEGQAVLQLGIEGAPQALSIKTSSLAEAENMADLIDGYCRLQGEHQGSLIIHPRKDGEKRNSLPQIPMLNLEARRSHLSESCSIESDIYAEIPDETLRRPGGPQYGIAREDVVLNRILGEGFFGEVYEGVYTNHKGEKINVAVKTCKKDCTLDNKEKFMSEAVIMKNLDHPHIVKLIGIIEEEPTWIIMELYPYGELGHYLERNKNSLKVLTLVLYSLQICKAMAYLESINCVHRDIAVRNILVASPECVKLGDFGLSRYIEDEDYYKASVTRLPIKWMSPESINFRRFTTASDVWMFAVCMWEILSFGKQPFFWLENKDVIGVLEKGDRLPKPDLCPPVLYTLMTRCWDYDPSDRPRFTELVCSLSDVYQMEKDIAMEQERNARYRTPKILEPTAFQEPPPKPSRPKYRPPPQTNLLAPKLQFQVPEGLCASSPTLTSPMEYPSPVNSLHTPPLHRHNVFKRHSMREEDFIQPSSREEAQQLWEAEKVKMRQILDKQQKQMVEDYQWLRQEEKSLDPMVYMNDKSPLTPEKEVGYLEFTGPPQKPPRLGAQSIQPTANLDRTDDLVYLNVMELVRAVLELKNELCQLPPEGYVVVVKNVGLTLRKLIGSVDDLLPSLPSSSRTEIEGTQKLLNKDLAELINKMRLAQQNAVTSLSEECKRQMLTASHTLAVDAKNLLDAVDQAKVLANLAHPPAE
Chain of Paired box protein Pax-8 (Q06710 whole entry): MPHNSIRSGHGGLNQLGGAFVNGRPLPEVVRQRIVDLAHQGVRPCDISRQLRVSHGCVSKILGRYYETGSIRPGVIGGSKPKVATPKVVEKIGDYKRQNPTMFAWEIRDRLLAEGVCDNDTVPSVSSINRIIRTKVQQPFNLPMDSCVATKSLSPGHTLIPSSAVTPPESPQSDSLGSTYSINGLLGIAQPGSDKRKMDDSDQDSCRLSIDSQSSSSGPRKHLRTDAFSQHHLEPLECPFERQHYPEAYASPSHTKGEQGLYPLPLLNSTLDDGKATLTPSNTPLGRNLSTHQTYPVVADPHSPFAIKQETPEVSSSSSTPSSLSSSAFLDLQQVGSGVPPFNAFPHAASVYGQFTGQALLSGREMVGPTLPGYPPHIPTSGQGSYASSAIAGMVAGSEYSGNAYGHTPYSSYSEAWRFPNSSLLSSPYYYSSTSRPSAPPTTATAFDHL
Chain of Disintegrin and metalloproteinase domain-containing protein 17 (P78536 whole entry, the tested form may be a part): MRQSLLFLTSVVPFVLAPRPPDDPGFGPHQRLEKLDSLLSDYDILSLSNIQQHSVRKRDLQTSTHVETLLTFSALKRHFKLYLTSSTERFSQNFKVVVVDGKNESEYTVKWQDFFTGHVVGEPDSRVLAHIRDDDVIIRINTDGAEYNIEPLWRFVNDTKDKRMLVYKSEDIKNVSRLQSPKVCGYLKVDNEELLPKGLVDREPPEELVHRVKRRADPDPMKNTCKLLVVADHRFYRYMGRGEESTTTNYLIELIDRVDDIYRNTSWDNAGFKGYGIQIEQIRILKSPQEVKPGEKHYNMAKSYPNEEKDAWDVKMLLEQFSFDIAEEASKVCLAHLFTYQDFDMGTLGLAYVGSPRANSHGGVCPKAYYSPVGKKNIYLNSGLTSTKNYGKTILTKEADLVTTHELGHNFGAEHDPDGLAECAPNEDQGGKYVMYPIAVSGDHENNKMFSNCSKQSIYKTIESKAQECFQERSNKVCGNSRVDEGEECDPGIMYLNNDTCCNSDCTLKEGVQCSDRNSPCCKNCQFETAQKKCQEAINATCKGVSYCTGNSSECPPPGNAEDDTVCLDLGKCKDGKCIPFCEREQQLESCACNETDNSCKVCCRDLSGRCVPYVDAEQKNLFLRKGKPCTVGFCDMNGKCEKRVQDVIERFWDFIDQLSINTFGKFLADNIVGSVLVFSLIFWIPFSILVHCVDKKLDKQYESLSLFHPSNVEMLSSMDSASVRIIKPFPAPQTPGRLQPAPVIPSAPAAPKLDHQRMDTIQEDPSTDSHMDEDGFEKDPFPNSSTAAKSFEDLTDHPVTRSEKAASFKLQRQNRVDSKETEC
Chain of Cytochrome P450 2D6 (P10635 whole entry, the tested form may be a part): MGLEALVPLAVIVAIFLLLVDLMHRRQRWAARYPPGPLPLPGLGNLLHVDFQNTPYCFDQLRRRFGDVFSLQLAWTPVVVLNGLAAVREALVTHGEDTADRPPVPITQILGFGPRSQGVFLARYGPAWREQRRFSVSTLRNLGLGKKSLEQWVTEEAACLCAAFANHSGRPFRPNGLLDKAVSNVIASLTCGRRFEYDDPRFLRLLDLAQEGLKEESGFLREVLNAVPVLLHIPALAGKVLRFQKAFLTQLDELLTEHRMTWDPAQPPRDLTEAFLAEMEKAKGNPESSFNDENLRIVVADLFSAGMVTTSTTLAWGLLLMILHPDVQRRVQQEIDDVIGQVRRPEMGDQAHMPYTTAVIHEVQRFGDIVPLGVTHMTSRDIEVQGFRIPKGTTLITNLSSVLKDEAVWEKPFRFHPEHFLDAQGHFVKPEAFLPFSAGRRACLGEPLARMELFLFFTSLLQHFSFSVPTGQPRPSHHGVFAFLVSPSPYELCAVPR

N#CCSc1nc(Nc2ccc3c(c2)OCO3)c2ccccc2n1
IC50 [1]: > 69.5 µM (not active)

CCc1cc2c(O)c(-c3ccon3)c(=N)oc2cc1OC
EC50 [2]: 1.5 µM (active)
EC50 [3]: 6.58 µM (active)
EC50 [4]: > 12 µM (not active)
EC50 (H4): 31.8 µM (active)
EC50 [5]: 7.6 µM (active)
EC50 [6]: 0.591 µM (active)

N#CC(C#N)=Cc1cccn1-c1ccc(C(=O)O)cc1
AC50 [7]: > 20 µM (inactive)
EC50 [8]: 160 µM (active)
EC50 [9]: > 300 µM (not active)

Cc1ccccc1-n1c2nc(=O)n(C)c(=O)c-2cc2ccccc21
EC50 (Kallikrein-7): 85.3 µM (inactive)

CCN1CCN(Cc2c(O)ccc3c2O/C(=C\c2ccc(C)cc2)C3=O)CC1
EC50 (Kallikrein-7): 23.9 µM (inactive)
EC50 [8]: 111 µM (active)
EC50 [9]: 38.9 µM (active)

Cc1ccc(CC(NC(=O)c2ccccc2)C(=O)NC(C)C(=O)O)cc1 (configuration not stated)
IC50 [10]: > 100 µM (active)

CC(C)C1Oc2ccccc2C(=O)N(CC(=O)c2ccc3c(c2)OCCO3)C1=O (configuration not stated)
EC50 [2]: 0.447 µM (active)
EC50 [3]: < 0.1 µM (active)
EC50 [4]: 0.33 µM (active)
EC50 (H4): < 0.1 µM (active)
EC50 [5]: 0.131 µM (active)
EC50 [6]: 0.425 µM (active)

O=[N+]([O-])c1ccc(CNc2ccc(F)cc2)s1
CC50 [11]: > 40 µM (active)
IC50 [10]: > 100 µM (active)

CNc1sc(C(=O)c2cccs2)c(N)c1-c1nc2ccccc2s1
CC50 [11]: 19.1 µM (active)
CC50 (Vero): > 40 µM (active)
IC50 [10]: > 100 µM (active)

CCOC(=O)C1=C(c2ccccc2)OC(N)=C(C#N)C1c1cccs1 (configuration not stated)
IC50 [1]: > 69.5 µM (not active)

C=C1C(=O)O[C@@H]2C3OC3(C)CC/C=C(\C)CC[C@@H]12 (some centres not stated)
AC50 (Cytochrome P450 3A4): 31.6 µM (inconclusive)

O=C(/C=C/c1cnc2ccccc2n1)NC12CC3CC(CC(C3)C1)C2
EC50 [2]: 0.32 µM (active)
EC50 [3]: < 0.1 µM (active)
EC50 [4]: 0.434 µM (active)
EC50 (H4): 0.921 µM (active)
EC50 [6]: 0.62 µM (active)

CC1(C)CC(=O)c2cnc(N3CCc4ccccc4C3)nc2C1
EC50 [2]: 0.268 µM (active)
EC50 [3]: < 0.1 µM (inconclusive)
EC50 [4]: 0.284 µM (active)
EC50 [6]: 0.283 µM (active)

COc1cc2c(cc1OC)-c1c(OC)c(OC)c(C=O)c3c1[C@H](C2)N(C)CC3
AC50 (Cytochrome P450 3A4): 7.94 µM (inconclusive)

Cc1ccccc1C(=O)Nc1ccc2c(c1)OCCO2
AC50 [12]: 10.5 µM (active)
AC50 [13]: 11.1 µM (active)
AC50 [14]: > 52 µM (inactive)

CCN(CC)CCCn1c(-c2ccccc2)nc2c(N(CCOC)CCOC)nc(C)nc21
AC50 (Cytochrome P450 3A4): 20 µM (inconclusive)

C[C@H](O)[C@@H]1C(=O)N2CCc3c([nH]c4ccccc34)[C@@H]2C[C@@H]1N(C)C(=O)c1cc(Cl)cc(Cl)c1
EC50 (Kallikrein-7): > 23.2 µM (inactive)

CNc1cncc(-c2ccc(OC)cc2)n1
EC50 (Kallikrein-7): > 69.5 µM (inactive)

COCCNC(=O)C[C@@H]1CC[C@H]2[C@@H](COC[C@H](O)CN2Cc2cccc(-c3ccncc3)c2)O1
AC50 (HEK293): 32.6 µM (active)
AC50 [15]: 32.6 µM (active)

C[C@H]1CCCCO[C@H](CN(C)Cc2ccncc2)[C@@H](C)CN([C@@H](C)CO)C(=O)c2cc(NC(=O)CCCN(C)C)ccc2O1
AC50 (HEK293): 38.1 µM (active)
AC50 [15]: 38.1 µM (active)

C[C@@H]1CN([C@@H](C)CO)S(=O)(=O)c2ccc(C3=CCCC3)cc2O[C@@H]1CN(C)Cc1ccccc1F
AC50 (HEK293): 23.9 µM (active)
AC50 [15]: 23.9 µM (active)

O=C(Nc1ccc(C(F)(F)F)cc1)Nc1ccc2c(c1)[C@@H]1C[C@H](CC(=O)N3CCc4ccccc4C3)O[C@H](CO)[C@@H]1O2
AC50 [16]: 48.6 µM (active)
AC50 (Paired box protein Pax-8): 9.5 µM (active)
AC50 [17]: 34.4 µM (active)
AC50 [18]: 14.2 µM (active)
AC50 [19]: 18.5 µM (active)

O=C(C[C@H]1CC[C@@H]2[C@H](COC[C@@H](O)CN2S(=O)(=O)c2cccc(Cl)c2)O1)Nc1ccc(-c2ccccc2)cc1
AC50 [16]: > 70 µM (inactive)
AC50 (Paired box protein Pax-8): 8.33 µM (active)

COc1cc(/C=N/O)cc(Br)c1OCc1ccc(Cl)cc1
AC50 (Cytochrome P450 2D6): 17.8 µM (inconclusive)
IC50 [20]: > 69.5 µM (inactive)
AC50 (Cytochrome P450 2C9): inconclusive

CCCCN1CCCCC1C(=O)Nc1c(C)cccc1C (configuration not stated) [BUPIVACAINE]
AC50 (HEK293): 35.7 µM (active)
AC50 [15]: 35.7 µM (active)
